According to patent US9211310B2, “Use of a Chinese medicine composition in preparing medicaments for treating secondary prevention of myocardial infarction” (TASLY PHARMACEUTICAL GROUP CO., LTD, priority 2010, dated 2015):

Tested on: patients after acute myocardial infarction
Assay: Angina pectoris score, total and single (frequency/attack times, duration, pain degree, dose of nitroglycerin), same clinical trial
Format: in vivo, human
Set-up: total angina pectoris score, Md / total angina pectoris score, Mean: scale not given here
Details: for patients with change of dose of nitroglycerin score −6 (%) / distribution of total angina pectoris score: Medium, number of patients / distribution of total angina pectoris score: Medium, percentage of patients / distribution of total angina pectoris score: Mild, number of patients / distribution of total angina pectoris score: Mild, percentage of patients / distribution of total angina pectoris score: Severe, number of patients / distribution of total angina pectoris score: Severe, percentage of patients / patients with dose of nitroglycerin score 0 (%) / patients with dose of nitroglycerin score 1 (%) / patients with dose of nitroglycerin score 2 (%) / patients with dose of nitroglycerin score 4 (%) / patients with dose of nitroglycerin score 6 (%) / total angina pectoris score, Md / total angina pectoris score, Mean / change of total angina pectoris score, Md / change of total angina pectoris score, Mean / patients with change of dose of nitroglycerin score 0 (%) / patients with change of dose of nitroglycerin score 1 (%) / patients with change of dose of nitroglycerin score 2 (%) / patients with change of dose of nitroglycerin score 4 (%) / patients with change of dose of nitroglycerin score 6 (%) / patients with change of dose of nitroglycerin score −1 (%) / patients with change of dose of nitroglycerin score −2 (%) / patients with change of dose of nitroglycerin score −3 (%) / patients with change of dose of nitroglycerin score −4 (%) / patients with change of dose of nitroglycerin score −5 (%): PP; for attack times score, patients (%): month after treatment
Description: In order to better understand the present invention, a multi-center, randomized, double-blind, double-dummy and positive drug controlled trial had been conducted. 3508 patients who were in accordance with the diagnostic standards of AMI for 28 days to 2 years and differentiated as Qi deficiency and blood stagnation syndrome by TCM were studied. 0.5 g Chinese medicine composition prepared by the method of EXAMPLE 1 (Coded as QSYQ) was administrated half an hour after meal, 3 times per day. Aspirine was used as a positive drug. The patients were treated for 1 year and observed for 6 months.
They included the overall survival time, angina pectoris score, TCM symptom score and life quality score, where angina pectoris score, TCM symptom score and life quality score were evaluated at randomization, in 1st, 3rd, 6th, 9th, 12th month after treatment and 18th month after follow-up.
(§1) Total angina pectoris score was described on every observation period and the change of observation in comparison with baseline. T-test or Wilcoxon rank sum test were used for inter-group comparison. Grade of total score was evaluated on every observation and Wilcoxon rank sum test was used for inter-group comparison. T-test and Pairing signed rank sum test were used for analyzing the change of total score on every observation between groups in comparison with the baseline.
(§2) Single angina pectoris score was depicted on every observation time-point and the change of observation in comparison with baseline. Wilcoxon rank sum test was used for inter-group comparison. Pairing signed rank sum test was used for analyzing the change of total score on every observation between groups in comparison with the baseline.
as §1, with “comparison with the baseline. T-test” for “comparison with baseline. T-test”
as §2, with “described” for “depicted”

[1] = 6 months after treatment-baseline
[2] = 9 months after treatment-baseline
[3] = 12 months after treatment-baseline

For `CC(=O)Oc1ccccc1C(=O)O` [Control group, aspirine], the “patients with change of dose of nitroglycerin score −6 (%)” value (3 months after treatment-baseline) was “(0.68%)”, the “distribution of total angina pectoris score: Medium, number of patients” value (“distribution … Medium, number of patients” for short) (6 months after treatment) was 278 and the “distribution of total angina pectoris score: Medium, percentage of patients” value (“distribution … Medium, percentage of patients” below) (6 months after treatment) was “(19.08%)”. The “distribution of total angina pectoris score: Mild, number of patients” value (shortened to “distribution … Mild, number of patients”) (6 months after treatment) was 1172, the “distribution of total angina pectoris score: Mild, percentage of patients” value (shortened to “distribution … Mild, percentage of patients”) (6 months after treatment) was “(80.44%)” and the “distribution of total angina pectoris score: Severe, number of patients” value (shortened to “distribution … Severe, number of patients”) (6 months after treatment) was 7. The “distribution of total angina pectoris score: Severe, percentage of patients” value (“distribution … Severe, percentage of patients” for short) (6 months after treatment) was “(0.48%)”, the “patients with dose of nitroglycerin score 0 (%)” value (6 months after treatment) was “(67.13%)” and the “patients with dose of nitroglycerin score 1 (%)” value (6 months after treatment) was “(1.03%)”. The “patients with dose of nitroglycerin score 2 (%)” value (6 months after treatment) was “(27.85%)”, the “patients with dose of nitroglycerin score 4 (%)” value (6 months after treatment) was “(2.75%)” and the “patients with dose of nitroglycerin score 6 (%)” value (6 months after treatment) was “(1.24%)”. The “total angina pectoris score, Md” value (6 months after treatment) was 5.00, the “total angina pectoris score, Mean” value (6 months after treatment) was 4.54 and the “change of total angina pectoris score, Md” value (“change … Md” below) [1] was −1.00. For the same compound, the “change of total angina pectoris score, Mean” value (“change … Mean” below) [1] was −2.58, the “patients with change of dose of nitroglycerin score 0 (%)” value [1] was “(69.47%)” and the “patients with change of dose of nitroglycerin score 1 (%)” value [1] was “(0.48%)”. The “patients with change of dose of nitroglycerin score 2 (%)” value [1] was “(4.14%)”, the “patients with change of dose of nitroglycerin score 4 (%)” value [1] was “(0.28%)” and the “patients with change of dose of nitroglycerin score 6 (%)” value [1] was “(0.28%)”. For the same compound, the “patients with change of dose of nitroglycerin score −1 (%)” value [1] was “(0.28%)”, the “patients with change of dose of nitroglycerin score −2 (%)” value [1] was “(19.43%)” and the “patients with change of dose of nitroglycerin score −3 (%)” value [1] was “(0.00%)”. For the same compound, the “patients with change of dose of nitroglycerin score −4 (%)” value [1] was “(4.41%)”, the “patients with change of dose of nitroglycerin score −5 (%)” value [1] was “(0.21%)” and the “patients with change of dose of nitroglycerin score −6 (%)” value [1] was “(1.03%)”. The “distribution … Medium, number of patients” value (9 months after treatment) was 233, the “distribution … Medium, percentage of patients” value (9 months after treatment) was “(16.15%)” and the “distribution … Mild, number of patients” value (9 months after treatment) was 1207. The “distribution … Mild, percentage of patients” value (9 months after treatment) was “(83.65%)”, the “distribution … Severe, number of patients” value (9 months after treatment) was 3 and the “distribution … Severe, percentage of patients” value (9 months after treatment) was “(0.21%)”. For the same compound, the “patients with dose of nitroglycerin score 0 (%)” value (9 months after treatment) was “(68.96%)”, the “patients with dose of nitroglycerin score 1 (%)” value (9 months after treatment) was “(1.25%)” and the “patients with dose of nitroglycerin score 2 (%)” value (9 months after treatment) was “(27.43%)”. The “patients with dose of nitroglycerin score 4 (%)” value (9 months after treatment) was “(1.39%)”, the “patients with dose of nitroglycerin score 6 (%)” value (9 months after treatment) was “(0.97%)” and the “total angina pectoris score, Md” value (9 months after treatment) was 5.00. For the same compound, the “total angina pectoris score, Mean” value (9 months after treatment) was 4.10, the “change … Md” value [2] was −2.00 and the “change … Mean” value [2] was −3.02. For the same compound, the “patients with change of dose of nitroglycerin score 0 (%)” value [2] was “(66.50%)”, the “patients with change of dose of nitroglycerin score 1 (%)” value [2] was “(0.42%)” and the “patients with change of dose of nitroglycerin score 2 (%)” value [2] was “(4.18%)”. For the same compound, the “patients with change of dose of nitroglycerin score 4 (%)” value [2] was “(0.28%)”, the “patients with change of dose of nitroglycerin score 6 (%)” value [2] was “(0.28%)” and the “patients with change of dose of nitroglycerin score −1 (%)” value [2] was “(0.56%)”. The “patients with change of dose of nitroglycerin score −2 (%)” value [2] was “(21.38%)”, the “patients with change of dose of nitroglycerin score −3 (%)” value [2] was “(0.14%)” and the “patients with change of dose of nitroglycerin score −4 (%)” value [2] was “(4.67%)”. For the same compound, the “patients with change of dose of nitroglycerin score −5 (%)” value [2] was “(0.21%)”, the “patients with change of dose of nitroglycerin score −6 (%)” value [2] was “(1.39%)” and the “distribution … Medium, number of patients” value (12 months after treatment) was 171. For the same compound, the “distribution … Medium, percentage of patients” value (12 months after treatment) was “(11.94%)”, the “distribution … Mild, number of patients” value (12 months after treatment) was 1259 and the “distribution … Mild, percentage of patients” value (12 months after treatment) was “(87.92%)”. For the same compound, the “distribution … Severe, number of patients” value (12 months after treatment) was 2, the “distribution … Severe, percentage of patients” value (12 months after treatment) was “(0.14%)” and the “patients with dose of nitroglycerin score 0 (%)” value (12 months after treatment) was “(74.81%)”. The “patients with dose of nitroglycerin score 1 (%)” value (12 months after treatment) was “(1.33%)”, the “patients with dose of nitroglycerin score 2 (%)” value (12 months after treatment) was “(22.18%)” and the “patients with dose of nitroglycerin score 4 (%)” value (12 months after treatment) was “(0.91%)”. For the same compound, the “patients with dose of nitroglycerin score 6 (%)” value (12 months after treatment) was “(0.77%)”, the “total angina pectoris score, Md” value (12 months after treatment) was 0.00 and the “total angina pectoris score, Mean” value (12 months after treatment) was 3.38. For the same compound, the “change … Md” value [3] was −3.00, the “change … Mean” value [3] was −3.71 and the “patients with change of dose of nitroglycerin score 0 (%)” value [3] was “(64.63%)”. The “patients with change of dose of nitroglycerin score 1 (%)” value [3] was “(0.63%)”, the “patients with change of dose of nitroglycerin score 2 (%)” value [3] was “(2.88%)” and the “patients with change of dose of nitroglycerin score 4 (%)” value [3] was “(0.07%)”. The “patients with change of dose of nitroglycerin score 6 (%)” value [3] was “(0.28%)”, the “patients with change of dose of nitroglycerin score −1 (%)” value [3] was “(0.63%)” and the “patients with change of dose of nitroglycerin score −2 (%)” value [3] was “(23.37%)”. For the same compound, the “patients with change of dose of nitroglycerin score −3 (%)” value [3] was “(0.07%)”, the “patients with change of dose of nitroglycerin score −4 (%)” value [3] was “(5.47%)” and the “patients with change of dose of nitroglycerin score −5 (%)” value [3] was “(0.07%)”. For the same compound, the “patients with change of dose of nitroglycerin score −6 (%)” value [3] was “(1.89%)”, the “distribution … Medium, number of patients” value (Baseline) was 539 and the “distribution … Medium, percentage of patients” value (Baseline) was “(36.01%)”. For the same compound, the “distribution … Mild, number of patients” value (Baseline) was 917, the “distribution … Mild, percentage of patients” value (Baseline) was “(61.26%)” and the “distribution … Severe, number of patients” value (Baseline) was 41. For the same compound, the “distribution … Severe, percentage of patients” value (Baseline) was “(2.74%)”, the “total angina pectoris score, Md” value (Baseline) was 8.00 and the “total angina pectoris score, Mean” value (Baseline) was 7.20. The “distribution … Medium, number of patients” value (Follow-up) was 192, the “distribution … Medium, percentage of patients” value (Follow-up) was “(13.64%)” and the “distribution … Mild, number of patients” value (Follow-up) was 1215. The “distribution … Mild, percentage of patients” value (Follow-up) was “(86.29%)”, the “distribution … Severe, number of patients” value (Follow-up) was 1 and the “distribution … Severe, percentage of patients” value (Follow-up) was “(0.07%)”. The “patients with dose of nitroglycerin score 0 (%)” value (Follow-up) was “(74.31%)”, the “patients with dose of nitroglycerin score 1 (%)” value (Follow-up) was “(0.93%)” and the “patients with dose of nitroglycerin score 2 (%)” value (Follow-up) was “(23.13%)”. For the same compound, the “patients with dose of nitroglycerin score 4 (%)” value (Follow-up) was “(1.00%)”, the “patients with dose of nitroglycerin score 6 (%)” value (Follow-up) was “(0.64%)” and the “total angina pectoris score, Md” value (Follow-up) was 0.00. For the same compound, the “total angina pectoris score, Mean” value (Follow-up) was 3.60, the “change … Md” value (Follow-up-baseline) was −2.00 and the “change … Mean” value (Follow-up-baseline) was −3.51. The “patients with change of dose of nitroglycerin score 0 (%)” value (Follow-up-baseline) was “(64.17%)”, the “patients with change of dose of nitroglycerin score 1 (%)” value (Follow-up-baseline) was “(0.29%)” and the “patients with change of dose of nitroglycerin score 2 (%)” value (Follow-up-baseline) was “(4.00%)”. The “patients with change of dose of nitroglycerin score 4 (%)” value (Follow-up-baseline) was “(0.29%)”, the “patients with change of dose of nitroglycerin score 6 (%)” value (Follow-up-baseline) was “(0.21%)” and the “patients with change of dose of nitroglycerin score −1 (%)” value (Follow-up-baseline) was “(0.43%)”. For the same compound, the “patients with change of dose of nitroglycerin score −2 (%)” value (Follow-up-baseline) was “(22.06%)”, the “patients with change of dose of nitroglycerin score −3 (%)” value (Follow-up-baseline) was “(0.14%)” and the “patients with change of dose of nitroglycerin score −4 (%)” value (Follow-up-baseline) was “(6.42%)”. The “patients with change of dose of nitroglycerin score −5 (%)” value (Follow-up-baseline) was “(0.14%)”, the “patients with change of dose of nitroglycerin score −6 (%)” value (Follow-up-baseline) was “(1.86%)” and the “attack times score, patients (%)” value (score 0, FAS) was “(36.58%)”. The “attack times score, patients (%)” value (score 0, PP) was “(36.33%)”, the “attack times score, patients (%)” value (score 1, FAS) was “(10.72%)” and the “attack times score, patients (%)” value (score 1, PP) was “(11.08%)”. For the same compound, the “attack times score, patients (%)” value (score 2, FAS) was “(46.56%)”, the “attack times score, patients (%)” value (score 2, PP) was “(46.88%)” and the “attack times score, patients (%)” value (score 4, FAS) was “(6.02%)”. The “attack times score, patients (%)” value (score 4, PP) was “(5.57%)”, the “attack times score, patients (%)” value (score 6, FAS) was “(0.11%)” and the “attack times score, patients (%)” value (score 6, PP) was “(0.13%)”.
